Laboratory results reported in US20220220135A1 (BAR-ILAN UNIVERSITY, priority 2019, published 2022).
“And” between values parts separate entries of the source, which are not always exact repeats. Identical values can stand only once.

Key:
NTPDase8 = target: T1, NTPDase8 (Homo sapiens, UniProt Q5MY95); assay: Stability to hydrolysis by human NTPDase8; type: in vitro ADME; settings: analogue 100 μM; activity with 100 μM ATP = 100%
T1 sequence (Q5MY95 1-495): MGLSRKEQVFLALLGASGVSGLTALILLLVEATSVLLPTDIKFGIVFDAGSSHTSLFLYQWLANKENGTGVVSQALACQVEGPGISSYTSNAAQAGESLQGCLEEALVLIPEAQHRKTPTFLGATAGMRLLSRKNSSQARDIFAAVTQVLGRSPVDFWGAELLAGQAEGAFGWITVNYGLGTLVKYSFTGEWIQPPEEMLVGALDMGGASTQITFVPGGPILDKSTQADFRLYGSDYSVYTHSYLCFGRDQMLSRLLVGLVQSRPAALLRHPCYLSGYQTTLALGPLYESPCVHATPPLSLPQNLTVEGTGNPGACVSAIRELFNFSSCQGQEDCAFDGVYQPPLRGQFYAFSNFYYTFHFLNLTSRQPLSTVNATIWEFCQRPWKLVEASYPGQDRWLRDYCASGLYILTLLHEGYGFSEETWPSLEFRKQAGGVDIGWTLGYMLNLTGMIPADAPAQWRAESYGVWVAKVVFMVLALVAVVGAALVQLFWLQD
Method: Uridine 5′-Pα,α-phosphorodithioate analogues, 9-12, were tested for their stability to degradation by NPP1 and NTPDases. These enzymes are involved in the metabolism of extracellular nucleotides. Analogues 9-12 were not hydrolyzed by hNPP1 (Table 2). […] Analogue 10 was hydrolyzed by hNTPDase1, -2 and -3 at 30-39% the rate of ATP and was slightly hydrolyzed by human NTPDase8 at 16% the rate of ATP.
Analogues 9-12 were incubated in the presence of the indicated ectonucleotidase at a concentration of 100 μM. The activity with 100 μM ATP was set as 100%, which was 329±108, 302±34, 263±51, 195±76 nmol of Pi·min−1·mg of protein−1 for NTPDase1, -2, -3 and -8, respectively, and 34±7 nmol for NPP1. Data presented are the mean±SEM of results from two experiments.

human NPP3 = target: T2, human NPP3 (Homo sapiens, UniProt O14638); assay: Inhibition of human NPP3, 100 μM p-Nph-5′-TMP as substrate (Tables 5, 7); type: biochemical; settings: 100 μM p-Nph-5′-TMP as a substrate; n = 3
T2 sequence (O14638 1-875): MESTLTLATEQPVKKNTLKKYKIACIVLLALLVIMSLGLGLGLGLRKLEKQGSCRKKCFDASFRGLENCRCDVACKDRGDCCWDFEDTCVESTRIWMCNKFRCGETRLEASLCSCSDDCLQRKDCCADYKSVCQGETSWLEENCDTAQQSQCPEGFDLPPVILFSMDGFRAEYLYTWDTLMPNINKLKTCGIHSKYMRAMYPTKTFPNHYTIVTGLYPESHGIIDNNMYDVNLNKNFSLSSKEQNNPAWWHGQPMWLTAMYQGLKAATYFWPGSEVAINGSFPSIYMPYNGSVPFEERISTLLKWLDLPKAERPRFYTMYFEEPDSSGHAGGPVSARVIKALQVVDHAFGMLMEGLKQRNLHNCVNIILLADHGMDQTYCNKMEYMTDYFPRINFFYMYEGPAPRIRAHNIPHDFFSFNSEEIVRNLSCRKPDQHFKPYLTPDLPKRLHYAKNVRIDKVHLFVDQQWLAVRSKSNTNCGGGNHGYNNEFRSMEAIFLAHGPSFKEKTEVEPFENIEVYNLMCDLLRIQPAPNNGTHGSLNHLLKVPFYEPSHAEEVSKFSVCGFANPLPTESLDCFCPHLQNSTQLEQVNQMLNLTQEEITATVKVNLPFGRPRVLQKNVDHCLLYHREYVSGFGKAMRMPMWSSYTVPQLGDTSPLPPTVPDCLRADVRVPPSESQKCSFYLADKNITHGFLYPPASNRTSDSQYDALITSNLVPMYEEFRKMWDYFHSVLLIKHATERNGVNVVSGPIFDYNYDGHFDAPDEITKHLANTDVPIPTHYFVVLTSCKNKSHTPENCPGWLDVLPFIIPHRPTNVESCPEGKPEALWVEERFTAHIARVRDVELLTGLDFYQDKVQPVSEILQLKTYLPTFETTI

human P2Y4R = target: T3, human P2Y4R (Homo sapiens, UniProt P51582); assay: Calcium mobilization in 1321N1 astrocytoma cells expressing human P2Y4R; type: cell-based
T3 construct: expressed in transfected cells; host or cells: 1321N1 astrocytoma cells
T3 sequence (P51582 whole entry): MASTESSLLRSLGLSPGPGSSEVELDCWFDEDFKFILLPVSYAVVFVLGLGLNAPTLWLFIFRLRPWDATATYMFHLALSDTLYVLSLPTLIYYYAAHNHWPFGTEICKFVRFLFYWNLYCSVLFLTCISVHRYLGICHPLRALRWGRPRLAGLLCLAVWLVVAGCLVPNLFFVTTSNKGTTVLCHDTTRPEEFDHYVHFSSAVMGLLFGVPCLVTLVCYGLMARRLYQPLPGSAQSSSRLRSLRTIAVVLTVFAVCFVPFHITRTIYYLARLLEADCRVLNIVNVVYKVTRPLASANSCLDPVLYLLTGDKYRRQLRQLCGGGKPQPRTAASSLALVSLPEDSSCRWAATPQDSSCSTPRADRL
Method: (§1) Given the structural resemblance of 106-109 to the natural ligands of P2Y receptors, adenine and uracil nucleotides as natural substrates, were assessed for agonist potency on the human P2Y1, P2Y2, P2Y4, and P2Y6 receptor. To evaluate NPP1 selectivity of analogs 106-109, they were tested for their ability to activate of the uridine-nucleotide sensitive human recombinant P2Y1,2,4,6-receptors. The agonist potencies of this series of nucleotide analogues on the Gq protein-coupled human P2Y1R, P2Y2R, P2Y4R, and P2Y6R was determined by assessing its ability to induce calcium mobilization in stably transfected 1321N1 astrocytoma cells (Table 8). The nucleotide analogues were found in calcium mobilization assays to activate the P2Y2R with mid-micromolar potency.

P2Y6R = P2Y6R (Homo sapiens, UniProt Q15077); assay: Calcium mobilization in 1321N1 astrocytoma cells expressing human P2Y6R; type: cell-based; parameters: expressed in transfected cells; host or cells: 1321N1 astrocytoma cells (stably transfected)
P2Y6R, sequence (Q15077 whole entry): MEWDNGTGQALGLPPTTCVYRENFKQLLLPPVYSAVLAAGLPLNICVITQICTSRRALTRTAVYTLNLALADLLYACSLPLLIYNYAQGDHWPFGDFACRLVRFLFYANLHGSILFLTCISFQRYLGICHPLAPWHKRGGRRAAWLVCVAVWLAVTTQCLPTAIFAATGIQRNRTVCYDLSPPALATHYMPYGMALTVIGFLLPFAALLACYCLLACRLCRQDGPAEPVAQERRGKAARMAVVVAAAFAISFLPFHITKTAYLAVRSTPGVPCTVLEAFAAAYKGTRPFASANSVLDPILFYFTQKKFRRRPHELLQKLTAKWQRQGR
Method: as §1

Structure (SMILES)	Relative activity (%) ± SEM of ATP hydrolysis, NTPDase8 (NTPDase8)	% inhibition ± SEM, human NPP3 (human NPP3)	% activation at 10 μM, P2Y4 (human P2Y4R) [%]	% activation at 10 μM, P2Y6 (P2Y6R) [%]
O=c1ccn([C@@H]2O[C@H](COP(=S)(S)OP(=O)(O)OP(=O)(O)O)[C@@H](O)[C@H]2O)c(=O)[nH]1 (stereo partly shown) [Analogue 10]	16% and 16.5 ± 2.8%	–	–	–
Nc1ncnc2c1ncn2COCCOP(=S)(S)OP(=O)(O)O (stereo not shown) [compound 106]	–	n.i.d	0 ± 0	−2 ± 1
